The values that follow come from US9370515B2, “Mixed lineage kinase inhibitors and method of treatments” (CALIFIA BIO, INC., priority 2013, dated 2016).

Molecules are shown by their SMILES. Where only a bound is given, the exact number is not on record here.

Sequence of MLK-3 (Q16584 whole entry): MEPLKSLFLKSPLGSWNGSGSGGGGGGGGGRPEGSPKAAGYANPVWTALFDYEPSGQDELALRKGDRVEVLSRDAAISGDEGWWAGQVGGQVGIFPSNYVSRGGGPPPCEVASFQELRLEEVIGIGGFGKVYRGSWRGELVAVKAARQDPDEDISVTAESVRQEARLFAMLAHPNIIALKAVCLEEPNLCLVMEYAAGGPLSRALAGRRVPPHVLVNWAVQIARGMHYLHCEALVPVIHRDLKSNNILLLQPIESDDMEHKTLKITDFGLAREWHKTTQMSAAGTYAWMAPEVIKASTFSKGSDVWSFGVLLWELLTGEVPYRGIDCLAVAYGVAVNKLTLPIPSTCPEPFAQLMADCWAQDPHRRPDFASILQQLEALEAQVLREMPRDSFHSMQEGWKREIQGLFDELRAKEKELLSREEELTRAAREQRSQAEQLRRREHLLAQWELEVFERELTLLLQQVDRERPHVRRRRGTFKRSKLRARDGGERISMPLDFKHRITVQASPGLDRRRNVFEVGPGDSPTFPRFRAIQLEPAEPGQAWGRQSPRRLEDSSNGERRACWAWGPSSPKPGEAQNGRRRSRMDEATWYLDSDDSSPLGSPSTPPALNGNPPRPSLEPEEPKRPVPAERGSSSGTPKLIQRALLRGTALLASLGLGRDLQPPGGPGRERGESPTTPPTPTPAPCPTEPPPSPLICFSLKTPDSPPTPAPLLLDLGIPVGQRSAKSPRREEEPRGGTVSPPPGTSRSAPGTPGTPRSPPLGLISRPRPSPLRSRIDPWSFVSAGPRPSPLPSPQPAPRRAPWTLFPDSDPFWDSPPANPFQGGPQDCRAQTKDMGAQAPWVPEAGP

This assay deals with MLK-3 (Homo sapiens, UniProt Q16584). Description: Biochemical assay for the inhibition of kinase activity for MLK-3 (33P-ATP, HOTSPOT filter binding). The note with it: activated MLK-3 20 nM, ATP 50 μM, myelin basic protein 20 μM, 20 minutes room temperature. As for the experimental part:
Biochemical Assay for the Inhibition of Kinase Activity for MLK-3: Myelin basic protein (20 μM final concentration) is dissolved in 20 mM Hepes (pH 7.5) containing […], […], 0.02% Brij35, 0.02 mg/ml BSA, 0.1 μM Na3VO4, 2 mM DTT, and 1% DMSO. Activated MLK-3 is added and mixed (20 nM final concentration), and inhibitors are added in DMSO. ^33P-ATP (specific activity 500 μCi/μL) is delivered into the reaction mixture to initiate the reaction (ATP concentration is 50 μM) and the mixture is incubated at room temperature for 20 minutes. % Activity is determined using a proprietary HOTSPOT™ microfluidic filter binding technology. See, Expert Opin. Drug Discov. 2008 June; 3(6): 607-621.
As to `COc1ccc(Nc2ccc3ncc(-c4cc5ccncc5s4)n3n2)cc1OC` [Compound 218, N-(3,4-dimethoxyphenyl)-3-(thieno[2,3-c]pyridin-2-yl)imidazo[1,2-b]pyridazin-6-amine], the concentration for half-maximal inhibition (IC50) (as a rule, the midpoint of a concentration-inhibition curve) was under 100 nM.
To `COC(=O)C1CCCN(c2ccc3ncc(-c4cc5ccccc5s4)n3n2)C1` (stereo not drawn) [Compound 131, methyl 1-(3-(benzo[b]thiophen-2-yl)imidazo[1,2-b]pyridazin-6-yl)piperidine-3-carboxylate] belongs under 5000 nM.
To `COc1ccc(Nc2ccc3ncc(-c4cc5cccc(OC(F)F)c5s4)n3n2)cc1OC` [Compound 187, 3-(7-(difluoromethoxy)benzo[b]thiophen-2-yl)-N-(3,4-dimethoxyphenyl)imidazo[1,2-b]pyridazin-6-amine] belongs 500 to 1000 nM.
To `COc1cc2cc(-c3cnc4ccc(NC5CCC[C@H](O)C5)nn34)sc2cc1OC` (stereo in doubt) [Compound 174, 3-(3-(5,6-dimethoxybenzo[b]thiophen-2-yl)imidazo[1,2-b]pyridazin-6-ylamino)cyclohexanol] belongs under 100 nM; to `O[C@H]1CCC[C@@H](Nc2ccc3ncc(-c4cc5ccccc5s4)n3n2)C1` (relative stereo) [Compound 122, cis-3-(3-(benzo[b]thiophen-2-yl)imidazo[1,2-b]pyridazin-6-ylamino)cyclohexanol], 100 to 500 nM.
The molecule `COc1ccc2cc(-c3cnc4ccc(Nc5ccc(OC)c(OC)c5)nn34)[nH]c2c1` [Compound 4, 3-(6-methoxy-1H-indol-2-yl)-N-(3,4-dimethoxyphenyl)imidazo[1,2-b]pyridazin-6-amine] displayed an IC50 of 100 to 500 nM.
As to `COc1ccc2cc(-c3cnc4ccc(N[C@H]5CC[C@H](O)CC5)nn34)sc2c1` [Compound 172, trans-4-(3-(6-methoxybenzo[b]thiophen-2-yl)imidazo[1,2-b]pyridazin-6-ylamino)cyclohexanol], the half-maximal inhibitory concentration (IC50) lay within 100 to 500 nM.
To `O[C@H]1CC[C@H](Nc2ccc3ncc(-c4ccc5cc(F)ccc5c4)n3n2)CC1` [Compound 162, trans-4-(3-(2-fluoronaphthalen-6-yl)imidazo[1,2-b]pyridazin-6-ylamino)cyclohexanol] belongs 500 to 1000 nM; to `COc1cc(Nc2ccc3ncc(-c4cc5ccccc5s4)n3n2)cc(OC)c1OC` [Compound 14, 3-(benzo[b]thiophen-2-yl)-N-(3,4,5-trimethoxyphenyl)imidazo[1,2-b]pyridazin-6-amine], 500 to 1000 nM; to `CO[C@H]1CC[C@H](N(C)c2ccc3ncc(-c4cc5cncc(C)c5s4)n3n2)CC1` [Compound 220, N-((1r,4r)-4-methoxycyclohexyl)-N-methyl-3-(7-methylthieno[3,2-c]pyridin-2-yl)imidazo[1,2-b]pyridazin-6-amine], 100 to 500 nM.
To `COc1ccc2cc(-c3cnc4ccc(N[C@H]5CC[C@H](O)CC5)nn34)[nH]c2c1` [Compound 86, trans-4-(3-(6-methoxy-1H-indol-2-yl)imidazo[1,2-b]pyridazin-6-ylamino)cyclohexanol] belongs 100 to 500 nM; to `OCC1CCCN(c2ccc3ncc(-c4cc5ccccc5s4)n3n2)C1` (stereo not drawn) [Compound 132, (1-(3-(benzo[b]thiophen-2-yl)imidazo[1,2-b]pyridazin-6-yl)piperidin-3-yl)methanol], 500 to 1000 nM; to `Cc1cccc2cc(-c3cnc4ccc(N[C@H]5CC[C@H](O)CC5)nn34)[nH]c12` [Compound 196, trans-4-(3-(7-methyl-1H-indol-2-yl)imidazo[1,2-b]pyridazin-6-ylamino)cyclohexanol], 100 to 500 nM.
In the case of `COc1ccc2c(c1)cc(-c1cnc3ccc(Nc4ccc(OC)c(OC)c4)nn13)n2C` [Compound 193, 3-(5-methoxy-1-methyl-1H-indol-2-yl)-N-(3,4-dimethoxyphenyl)imidazo[1,2-b]pyridazin-6-amine] it was under 5000 nM; in that of `OCCNc1ccc2ncc(-c3cc4ccccc4s3)n2n1` [Compound 108, 2-(3-(benzo[b]thiophen-2-yl)imidazo[1,2-b]pyridazin-6-ylamino)ethanol], 500 to 1000 nM.
The molecule `COc1cc(Nc2ccc3ncc(-c4cc5ccccc5s4)n3n2)ccc1OCC1CC1` [Compound 28, 3-(benzo[b]thiophen-2-yl)-N-(4-(cyclopropylmethoxy)-3-methoxyphenyl)imidazo[1,2-b]pyridazin-6-amine] had an IC50 of under 5000 nM.
To `COc1ccc2[nH]c(-c3cnc4ccc(N[C@H]5CC[C@H](O)CC5)nn34)cc2c1` [Compound 85, trans-4-(3-(5-methoxy-1H-indol-2-yl)imidazo[1,2-b]pyridazin-6-ylamino)cyclohexanol] belongs under 100 nM.
To `Cc1c(-c2cnc3ccc(N[C@H]4CC[C@H](O)CC4)nn23)sc2ccc(Cl)cc12` [Compound 164, trans-4-(3-(5-chloro-3-methylbenzo[b]thiophen-2-yl)imidazo[1,2-b]pyridazin-6-ylamino)cyclohexanol] belongs 500 to 1000 nM; to `COc1ccc2[nH]c(-c3cnc4ccc(Nc5ccc(OC)c(OC)c5)nn34)cc2c1` [Compound 3, 3-(5-methoxy-1H-indol-2-yl)-N-(3,4-dimethoxyphenyl)imidazo[1,2-b]pyridazin-6-amine], 100 to 500 nM.
In the case of `COc1cc2cc(-c3cnc4ccc(-c5ccc(CN6CCN(C)CC6)cc5)nn34)sc2cc1OC` [Compound 73, 3-(5,6-dimethoxybenzo[b]thiophen-2-yl)-6-(4-((4-methylpiperazin-1-yl)methyl)phenyl)imidazo[1,2-b]pyridazine] it was 500 to 1000 nM; in that of `COc1ccc(Nc2ccc3ncc(-c4cc5cncc(OC)c5s4)n3n2)cc1OC` [Compound 210, N-(3,4-dimethoxyphenyl)-3-(7-methoxythieno[3,2-c]pyridin-2-yl)imidazo[1,2-b]pyridazin-6-amine], under 5000 nM; in that of `COc1cc(Nc2ccc3ncc(-c4cc5cccc(OC(F)(F)F)c5s4)n3n2)ccc1OC(F)F` [Compound 189, N-(4-(difluoromethoxy)-3-methoxyphenyl)-3-(7-(trifluoromethoxy)benzo[b]thiophen-2-yl)imidazo[1,2-b]pyridazin-6-amine], under 5000 nM.
Turning to `COc1ccc(Nc2ccc3ncc(-c4cc5cc(OC)c(OC)cc5[nH]4)n3n2)cc1OC` [Compound 197, 3-(5,6-dimethoxy-1H-indol-2-yl)-N-(3,4-dimethoxyphenyl)imidazo[1,2-b]pyridazin-6-amine], the IC50 was 100 to 500 nM.
To `COc1ccc(Nc2ccc3ncc(-c4cc5cccnc5s4)n3n2)cc1OC` [Compound 204, N-(3,4-dimethoxyphenyl)-3-(thieno[2,3-b]pyridin-2-yl)imidazo[1,2-b]pyridazin-6-amine] belongs 100 to 500 nM.
To `OC[C@H]1CC[C@H](Nc2ccc3ncc(-c4cc5ccccc5s4)n3n2)CC1` [Compound 139] belongs 100 to 500 nM; to `CN1CCN(Cc2ccc(-c3ccc4ncc(-c5cc6ccccc6s5)n4n3)cc2)CC1` [Compound 39, 3-(benzo[b]thiophen-2-yl)-6-(4-((4-methylpiperazin-1-yl)methyl)phenyl)imidazo[1,2-b]pyridazine], under 5000 nM; to `Cc1cncc2cc(-c3cnc4ccc(N(C)[C@H]5CC[C@H](O)CC5)nn34)sc12` [Compound 221, trans-4-(N-methyl-N-(3-(7-methylthieno[3,2-c]pyridin-2-yl)imidazo[1,2-b]pyridazin-6-yl)amino)cyclohexanol], 100 to 500 nM.
